In US6683105B2 (priority 1997, dated 2004):
“Also recorded” adds a separate entry of the source.

Tests used:
human plasma BChE = biological target: T1, human plasma BChE (Homo sapiens, UniProt P06276); assay: BChE inhibition, IC(50) by logit plot; type: biochemical; conditions: BChE compared with AChE
T1 construct: human plasma BChE; from tissue; host or cells: human plasma
Description: The IC (50) values can be determined for such inhibitors using methods well known in the art. In such assay the pharmacological activity of each compound, as an IC (50), defined as the concentration, in nanomoles, required to inhibit 50% of the enzyme activity of AChE and BChE, is determined separately. For determination of IC (50) values, the enzyme activity of each concentration was expressed as a percent of that determined in the absence of each compound. This then was transformed into a logit format, where logit=In (% activity/[100-% activity]), and was plotted as a function of the log concentration of the compound. IC (50) values (i.e., logit=In (50/[100−5O]=0) were determined only from correlation coefficients (r^2) of less than −0.985 and when more than 50% inhibition was achieved from duplicate samples. The selectivity ratio is then determined by comparing the IC (50) values obtained for each compound with AChE to that for BChE.

[1] = system: βAPP secretion, glioblastoma, HeLa, neuroblastoma and PCI2 cell lines; conditions: neuronal cells treated with cholinesterase inhibitors; cited from earlier work
[2] = system: aged Fischer-344 (F344) rats; assay: 14-unit T-maze (Stone maze) learning; type: in vivo, rat
Source text: In the present study we assessed the effects of chronic cymserine treatment (5 days) on performance of aged Fischer-344 (F344) rats (21-22 months old) in a 14-unint T-maze, referre to as the Stone maze.
(§1) Male F344 rats 21-22 months old were obtained from Harlan-Sprague-Dawley under contract from the National Institute on Aging. They were maintained two per cage in a vivarium at the Gerontology Research Center under specific pathogen free conditions as characterized previously.
(§2) As previously described, the Stone maze is constructed of translucent plastic with a grid floor wired for scrambled foot shocks and is surrounded by gray walls to reduce availability of extra-maze cues. The only other apparatus was a straight runway (2 m) used for pretraining. Similar to the maze, the runway was also constructed of translucent plastic, and contained a grid floor wired for scrambled foot shocks, and was surrounded by gray walls.
(§3) […] On days 3-5 injections were made 30 min prior to behavioral testing.
Rats received training in the Stone maze scheduled as a 4-trial session during the morning and afternoon on days 4 and 5. During each trial, the rat had to locomote from a start box to a goal box through five maze segments each separated by guiiltine doors. The reinforcement contingency required the rat to negotiate each segment within 10 s to avoid the onset of mild foot shock (0.8 mA), which was terminated when the animal moved through the door into the next segment. After entry into succeeding segments, the door from the preceding segment was closed to prevent backtracking. Recorded as deviations from the correct pathway, errors were the primary dependent variable and were counted automatically by a series of infrared sensors connected to a microprocessor. Run time from the start box to the goal was also recorded automatically. The frequency and duration of foot shock were recorded on a mechanically operated clock.

secreted βAPP in CSF = assay: CSF βAPP in rats with or without forebrain cholinergic (nbM) lesions; type: in vivo, rat
Source text: Cymserine, a representative of selective BChE inhibitors, additionally alters βAPP synthesis/processing in vivo.
A methodology that can be employed to determine the ability of a selected compound to regulate secreted βAPP levels in vivo is as follows:
For forebrain cholinergic system lesions, rats receive a unilateral subcortical lesion of the nucleus basalis of Meynert (nbM) using N-methyl-D-aspartate (NMDA) as an excitotoxin. In undertaking this, rats are anesthetized and placed in a stereotaxic apparatus with the upper incisor bar set level with the intra-aural line. A 33 gauge infusion cannula is lowered into two sites within the nbM on one side of the brain (AP bregma, ML −2.8 mm, DV −8.0 mm re: skull and AP bregma −0.8 mm, ML −3.0 mm, DV −7.8 mm, respectively). One microliter of a solution of 50 mM NMDA in PBS buffer (physiological pH) is slowly infused into each site. Controls for the lesion are vehicle alone and the contralateral side of NMDA treated animals.
Collection of CSF for analysis of βAPP levels is undertaken by withdrawal of an aliquot from the cistern magna of rats immediately following their death. Quantitation of βAPP is undertaken by immunoblot analysis utilizing mAb22C11.

[3] = system: aged Fischer-344 (F344) rats; assay: One-way active avoidance pretraining in straight runway; type: in vivo, rat; conditions: for mean (s.e.m.) avoidances: pretraining, i.p. daily
Source text: as §1, §2, §3
Beginning on day 2 rats were provided training in one-way active avoidance in the straight runway. On each trial, the rat had to locomote from the start box to the goal box within 10 s to avoid the onset of foot shock (0.8 mA). Rats received 10 trials on day 2 and 10 trials on day 3. Training was terminated when the rat met a performance criteria of eight avoidances within 10 consecutive trials within a maximum of 30 trials. Only rats meeting this criterion were tested in the Stone maze on the next day.

[4] = Brain and plasma time-dependent kinetics by HPLC; type: in vivo; conditions: rat
Description: Determination of the brain and plasma time-dependent kinetics of cymserine in the rats is undertaken by administering compound into the saphenous vein of anesthetized animals. Animals are killed by excess anesthetic at specific times and blood and brain samples are immediately taken. The blood is centrifuged (10,000 g, 2 min), plasma is collected and, together with the sample of brain, is stored at −80° C. Quantitation of concentrations of cymserine is undertaken by high performance liquid chromatography.

[5] = system: βAPP in human neuroblastoma cell lines; assay: Cellular and secreted βAPP levels by immunoblot; type: cell-based
Description: In further studies, the actions of selective AChE (Compounds 2, 3, (phenserine and tolserine) Table 1) and BChE (Compound 4 (cymserine), Table 1) inhibitors were assessed against human neuroblastoma cell lines. Both secreted levels, measured in the conditioned medium, and cellular levels of βAPP, measured in the cell lysates, were assessed and compared to levels achieved in untreated cells.
A methodology that can be employed to determine the ability of a selected compound to regulate cellular and secreted βAPP levels is as follows:
1 to 1.5×10^7 of each cell type (neuronal and non-neuronal) are cultured in their respective medium. Before adding drug, the cells are fed with media containing only 0.5% of FBS (low serum). The cells are then incubated either in the absence or presence of the test compound. Following incubation periods from 12 to 48 hours, the conditioned medium from each plate is collected and both it and the cells are centrifuged at 800 g. for 10 minutes. The conditioned medium is collected and the cells lysed in buffer containing 50 mM Tris-Cl (pH 8.0), 150 mM NaCl, 5 mM EDTA, 2 mM PMSF, 0.5% sodium deoxycholate, 1 ug/ml each of aprotonin, leupeptin and TLCK, and 0.1 ug/ml of pepstatin A. The cells are centrifuged for 10 min at 11,000 g at 4° C. Proteins of the supernatant solution (cell lysate) are measured by the Bradford dye-binding procedure (Bradford, Anal. Biochem. 72: 248-254, 1976).
For polyacrylamide gel electrophoresis and immunoblotting: in control experiments, an equivalent concentration of ethanol was used as a vehicle which is less than 1% in media. Compound dosages of from about 0.15 mM to 0.5 mM may be used. 100 uL of conditioned media or 30 ug of protein from the total cell lysate is separated on a 12% polyacrylamide gel containing SDS (SDS-PAGE). Immunoblot analysis was performed using the avidinbiotyinylated complex detection kit of Vector Laboratories as described by Lahiri, et al., J. Neurosci: Res. 12:777-787 (1994). The antisera employed is from the mAb22C11 clone (Boehringer Mannheim) which recognizes all mature forms of βAPP found in cell membranes as well as the carboxyltruncated soluble forms secreted into the conditioned media and the APP-like protein. Additionally, the mAb6E10 is employed which recognizes residues 1 to 28 of Aβ. […] Biotinylated secondary antibodies, horse anti-mouse and goat anti-rabbit (Boehringer Mannheim, and Vector Labs) are also used.

[6] = 1.0 mg kg, blocks 3 and 4 vs controls

T1 sequence (P06276 29-602): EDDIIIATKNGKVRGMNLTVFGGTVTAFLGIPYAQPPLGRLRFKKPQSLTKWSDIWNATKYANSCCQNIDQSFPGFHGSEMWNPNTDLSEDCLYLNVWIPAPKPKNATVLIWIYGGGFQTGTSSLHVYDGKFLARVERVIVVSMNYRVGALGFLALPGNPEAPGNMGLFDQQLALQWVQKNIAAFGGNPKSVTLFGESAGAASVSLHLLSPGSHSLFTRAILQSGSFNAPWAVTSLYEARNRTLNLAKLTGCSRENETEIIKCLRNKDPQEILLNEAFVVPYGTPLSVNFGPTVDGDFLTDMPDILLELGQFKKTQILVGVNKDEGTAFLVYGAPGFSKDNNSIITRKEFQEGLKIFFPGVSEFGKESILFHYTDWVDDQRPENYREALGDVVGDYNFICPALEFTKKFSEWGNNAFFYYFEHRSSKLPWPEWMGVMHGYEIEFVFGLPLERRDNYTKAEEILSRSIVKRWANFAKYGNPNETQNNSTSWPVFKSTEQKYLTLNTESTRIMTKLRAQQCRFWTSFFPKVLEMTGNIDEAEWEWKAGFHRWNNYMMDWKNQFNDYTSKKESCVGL

3′-methyl-carbamoyl eseroline
selectivity of inhibitory action for BChE versus AChE (human plasma BChE): does not provide BChE selectivity

Nc1ccncc1N [3,4 diaminopyridine]
secretion of βAPP [1]: none of the other drugs, all classical anticholinesterases, produced a change

Cc1ccccc1NC(=O)Oc1ccc2c(c1)[C@]1(C)CCN(C)[C@@H]1N2C [Compound 3, tolserine, reference compound]
selectivity of inhibitory action for BChE versus AChE (human plasma BChE): no selectivity for BChE

CC(C)c1ccc(NC(=O)Oc2ccc3c(c2)[C@]2(C)CCN(C)[C@@H]2N3C)cc1 [Compound 4, cymserine]
errors across all trials ([2]; 1 mg kg group vs controls): significantly improved performance | shock duration ([2]; 1.0 mg kg, block 2): significantly reduced | run time [2, 6]: significantly reduced | shock duration [2, 6]: significantly reduced | shock frequency [2, 6]: significantly reduced | errors across all trials ([2]; 2 mg kg group vs controls): significantly improved performance | run time ([2]; 2.0 mg kg, block 4): significantly reduced | shock duration ([2]; 2.0 mg kg, block 4): significantly reduced | shock frequency ([2]; 2.0 mg kg, block 4): significantly reduced | errors in the Stone maze ([2]; 3 mg kg dose): least effective | motoric side effects ([2]; 3 mg kg dose, a few rats): fine tremor | shock duration ([2]; 3.0 mg kg, block 4): significantly different from controls | number of errors made in the Stone maze ([2]; all doses, compared with control condition): significantly reduced | learning / cognitive performance of aged rats in the Stone maze ([2]; chronic treatment (5 days)): improves cognitive performance; also recorded: markedly improved | side effects ([2]; doses other than 3 mg kg): no side effects were noted | levels of βAPP in CSF (secreted βAPP in CSF; animals without cholinergic lesions, cymserine alone versus pure control rats): reduced | elevation of secreted βAPP in CSF (secreted βAPP in CSF; rats with forebrain cholinergic lesions, intraperitoneal twice daily for 7 days): blocks the elevation | CSF βAPPγ levels (secreted βAPP in CSF; rats, FIG. 3 legend): reduces | effects of drug treatment during pretraining ([3]; all dose groups vs control): No effects | mean (s.e.m.) avoidances ([3]; 1 mg kg cymserine group): 65% (2.8) | mean (s.e.m.) avoidances ([3]; 2 mg kg cymserine group): 63% (3.8) | mean (s.e.m.) avoidances ([3]; 3 mg kg cymserine group): 61% (3.9) | brain levels relative to plasma levels ([4]; 1 mg/kg by the intravenous route): ~40 fold | crossing of the blood-brain barrier ([4]; systemic administration): readily cross the blood-brain barrier | cellular levels of βAPP ([5]; cell lysates, compared to untreated cells): dramatically reduced | secreted βAPP levels ([5]; conditioned medium, compared to untreated cells): reduced | βAPP levels assessed by mAb22C11 and 6E10 ([5]; immunoblot, FIG. 2): dramatically reduce | effect on other secretory proteins, such as HSP-70 ([5]; immunoblot, selectivity control): without affecting | selectivity of inhibitory action for BChE versus AChE (human plasma BChE): selectivity for BChE inhibition

C=CCN1CCC2(C)c3cc(OC(=O)NC)ccc3N(C)C12 (stereo not drawn) [Compound 20, N^1-allylnorphysostigmine]
selectivity of inhibitory action for BChE versus AChE (human plasma BChE): provide BChE selectivity

CNC(=O)Oc1ccc2c(c1)[C@]1(C)CCS[C@@H]1N2C [Compound 22, thiaphysovenine]
selectivity of inhibitory action for BChE versus AChE (human plasma BChE): selectivity of inhibitory action for BChE

CNC(=O)Oc1ccc2c(c1)[C@]1(C)CCO[C@@H]1N2C [Compound 26, physovenine]
selectivity of inhibitory action for BChE versus AChE (human plasma BChE): selectivity of inhibitory action for BChE

CNC(=O)Oc1ccc2c(c1)C1(C)CCN(C)C1N2Cc1ccccc1 (stereo not drawn) [Compound 30, N^8-benzylnorphysostigmine]
selectivity of inhibitory action for BChE versus AChE (human plasma BChE): potent and selective inhibitors of BChE

CNC(=O)Oc1ccc2c(c1)[C@]1(C)CCN(C)C1N2 (stereo partly drawn) [Compound 34, N^8-norphysostigmine]
selectivity of inhibitory action for BChE versus AChE (human plasma BChE): potent and selective inhibitors of BChE

COP(=O)(OC)C(O)C(Cl)(Cl)Cl (stereo not drawn) [metrifonate]
secretion of βAPP [1]: none of the other drugs, all classical anticholinesterases, produced a change

Nc1c2c(nc3ccccc13)CCCC2 [tacrine]
secretion of βAPP [1]: reducing it
